Measured values as given in PubChem BioAssay (NCI).
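Five concentrations, 48 hours, 96-well plates. GI50 marks 50% less growth. TGI: concentration producing complete growth inhibition.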

Key:
Test in all cases: inhibition of tumour cell growth, NCI panel, 48 h
KM12 colon = system: KM12 colon
HCC-2998 colon = system: HCC-2998 colon
TK-10 renal = system: TK-10 renal
SK-OV-3 ovarian = system: SK-OV-3 ovarian
SF-295 CNS = system: SF-295 CNS
UACC-257 melanoma = system: UACC-257 melanoma
RPMI-8226 leukemia = system: RPMI-8226 leukemia
HOP-92 NSCLC = system: HOP-92 NSCLC
HS 578T breast = system: HS 578T breast
LOX IMVI melanoma = system: LOX IMVI melanoma

SMILES | GI50 (KM12 colon) [µM] | TGI (KM12 colon) [µM] | TGI (HCC-2998 colon) [µM] | TGI (TK-10 renal) [µM] | GI50 (SK-OV-3 ovarian) [µM] | TGI (SK-OV-3 ovarian) [µM] | GI50 (SF-295 CNS) [µM] | TGI (SF-295 CNS) [µM] | GI50 (UACC-257 melanoma) [µM] | TGI (UACC-257 melanoma) [µM] | GI50 (RPMI-8226 leukemia) [µM] | TGI (RPMI-8226 leukemia) [µM] | TGI (HOP-92 NSCLC) [µM] | TGI (HS 578T breast) [µM] | TGI (LOX IMVI melanoma) [µM] | GI50 (TK-10 renal) [µM] | GI50 (HS 578T breast) [µM] | GI50 (LOX IMVI melanoma) [µM] | GI50 (HOP-92 NSCLC) [µM]
O=C(CCc1nnc2s/c(=C\c3ccc(Cl)cc3Cl)c(=O)n12)Nc1cc(Cl)c(Cl)cc1Cl | > 100 | > 100 | > 100 | > 100 | > 100 | > 100 | > 100 | > 100 | > 100 | > 100 | > 100 | > 100 | > 100 | – | – | – | – | – | –
O=S(=O)(N1CCCCN(S(=O)(=O)C(F)(F)F)CCCN(S(=O)(=O)C(F)(F)F)CCCN(S(=O)(=O)C(F)(F)F)CCCCN(S(=O)(=O)C(F)(F)F)CCCN(S(=O)(=O)C(F)(F)F)CCC1)C(F)(F)F | – | > 100 | > 100 | > 100 | – | > 100 | – | 82.1 | – | > 100 | – | – | > 100 | 92.4 | > 100 | – | – | – | –
Cc1cccc2ns[s+]c12 | – | > 100 | > 100 | > 100 | – | > 100 | – | > 100 | – | > 100 | – | > 100 | > 100 | – | – | – | – | – | –
COc1ccc2c(c1)CCC1C2CCC2(C)C1CC[C@@]2(O)CNC(=O)/C=C/c1ccc(O)c(O)c1 (stereo not given in full) | 2.44 | 7.82 | – | 9.81 | 14.8 | > 100 | 3.54 | > 100 | 18.5 | 35.7 | – | – | 14.7 | > 100 | 5.57 | 2.52 | 7.62 | 1.58 | 2.23
OB1OCc2ccccc21 | – | > 100 | – | > 100 | – | 47.1 | – | 40.9 | – | > 100 | – | 45.9 | – | > 100 | > 100 | – | – | – | –
COc1cc2c(cc1C)NC(=O)/C2=C/c1c(Cl)n(C)c2ccccc12 | – | 16.6 | 20.1 | 30.7 | – | 39.8 | – | 29.4 | – | 34.7 | – | > 100 | – | 12.8 | 22.7 | – | – | – | –
CC(C)(Oc1ccc(C2C[C@H]2Cl)cc1)C(=O)O (stereo not given in full) | – | > 100 | – | > 100 | – | > 100 | – | > 100 | – | > 100 | – | > 100 | > 100 | > 100 | > 100 | – | – | – | –
Nc1nc(NC(=O)C2=NS(=O)(=O)c3cc(S(N)(=O)=O)c(Cl)cc3N2)n[nH]1 | – | > 100 | > 100 | > 100 | – | > 100 | – | > 100 | – | > 100 | – | > 100 | > 100 | – | > 100 | – | – | – | –
Clc1ccc(CCn2ccc3ccccc32)c(Cl)c1 | – | > 100 | > 100 | > 100 | – | > 100 | – | > 100 | – | > 100 | – | > 100 | > 100 | > 100 | – | – | – | – | –
COC(=O)C(I(OS(=O)(=O)c1ccc(C)cc1)c1ccccc1)=P(c1ccccc1)(c1ccccc1)c1ccccc1 | – | 34.2 | 34.8 | 57 | – | 52.4 | – | 87 | – | 37.1 | – | 24.2 | 35.4 | 85.1 | – | – | – | – | –
CCC1(CC)C(=O)N(C(=O)c2ccc(Cl)cc2)N(C(=O)c2ccccc2Cl)C1=O | – | > 100 | > 100 | > 100 | – | > 100 | – | > 100 | – | > 100 | – | 78.9 | – | > 100 | 50.3 | – | – | – | –
COC(=O)c1ccc2[nH]c3c(c2c1)CC(=O)Nc1ccccc1-3 | – | > 100 | > 100 | > 100 | – | > 100 | – | > 100 | – | > 100 | – | > 100 | – | > 100 | > 100 | – | – | – | –
COc1ccccc1C1C(Cl)C(=O)N1NC(=O)Cc1ccccc1 (stereo not given) | – | > 100 | > 100 | > 100 | – | > 100 | – | > 100 | – | > 100 | – | > 100 | – | – | > 100 | – | – | – | –
C=CC(C)(C)c1cc([C@@H]2COc3cc(O)ccc3C2=O)c(O)c(OC)c1OC | – | 27.8 | 34.3 | > 100 | – | 36.7 | – | 27.5 | – | 44.9 | – | – | 21.6 | 72.2 | 37.9 | – | – | – | –
COC[C@H](Cc1ccccc1)N=Cc1ccccc1 | – | > 100 | > 100 | > 100 | – | > 100 | – | > 100 | – | > 100 | – | > 100 | – | > 100 | > 100 | – | – | – | –
Cc1ccc(-n2cc(-c3ccc(Cl)cc3)c3c(NNC(=S)NCc4ccccc4)ncnc32)cc1 | – | 20 | – | 68.2 | – | 82 | – | 55.4 | – | 48 | – | > 100 | 66 | > 100 | 22.8 | – | – | – | –
COc1cc(NS(C)(=O)=O)ccc1N1Cc2cnc3ccc4[nH]ccc1c4c23 | – | > 100 | – | > 100 | – | – | – | > 100 | – | > 100 | – | 46.8 | > 100 | > 100 | 41.6 | – | – | – | –
N#Cc1ccc(/C=C2\Cc3ccccc3C2=O)cc1 | – | > 100 | > 100 | > 100 | – | > 100 | – | > 100 | – | > 100 | – | > 100 | – | > 100 | – | – | – | – | –
CSc1nc(Cl)c2c(n1)Sc1ncnn1C2O (stereo not given) | – | – | 27.4 | 31.2 | – | 42.2 | – | – | – | 45.7 | – | – | 30.3 | 23.2 | 21.1 | – | – | – | –
Cc1ccc(-c2c(C#N)c(O)n(NS(=O)(=O)c3ccccc3)c(=O)c2C#N)cc1 | – | > 100 | > 100 | > 100 | – | > 100 | – | > 100 | – | > 100 | – | – | > 100 | – | > 100 | – | – | – | –
C[C@H]1C(=O)C2=C[C@H]1CCC(=O)[C@]1(C)CCCC(C)(C)[C@H]1C[C@H]2O | – | 52 | – | 28.7 | – | > 100 | – | > 100 | – | 83.6 | – | 34.2 | 54.3 | 62.7 | 35.4 | – | – | – | –
CCCCCCCCCCCCCCCCCc1nc(C#N)c(N)o1 | – | > 100 | – | > 100 | – | > 100 | – | – | – | > 100 | – | 52 | > 100 | 85.4 | > 100 | – | – | – | –
